Laboratory results reported in paper PMC7072103, “Simultaneous Determination of 13 Constituents of Radix Polygoni Multiflori in Rat Plasma and Its Application in a Pharmacokinetic Study” (International Journal of Analytical Chemistry, 2020).
Entries after “also recorded” stand apart in the source; their conditions may differ. Read-outs that look alike come from different tables or passages of the source. Blank lines part the entries; values can stand above or below the molecule they belong to.

Key:
[1] = Pharmacokinetic study in rats after oral administration of RPM extract (UPLC-MS/MS of plasma); assay type: in vivo, Sprague-Dawley rats; settings: for Latest plasma sample time at which the constituent was detected / Detection in rat plasma after oral RPM extract: RPM extract 36 g/kg oral; for Latest plasma sample time at which the constituent was detected: sampling up to 24 h; for Detection in rat plasma after oral RPM extract: real plasma samples
Experimental: The analysis was performed on an AB Sciex API 5500 Q Trap mass spectrometer (Toronto, Canada), interfaced with a Waters Acquity UPLC separation module. Empower 3.0 and Analyst 1.62 software were used to control UPLC and mass spectrometer, respectively.
Chromatographic separation was achieved on a waters HSS C18 column (100 × 2.1 mm, 1.8 μm, kept at 40°C) using a mobile phase containing 0.025% formic acid that consisted of solvent A (water) and solvent B (acetonitrile). The mobile phase was delivered at 0.3 mL/min, and a gradient program was used as follows: 0-1 min, held 5% to 25% solvent B; 1–3.5 min, linear gradient from 25% to 35% solvent B; 3.5–5 min, linear gradient from 35% to 40% solvent B; 5-6 min, linear gradient from 40% to 60% solvent B; 6-6.1 min, linear gradient from 60% to 95% solvent B; 6.1–8 min, linear gradient from 95% to 100% solvent B; and 8-9 min, held 5% solvent B.
The MS detection was set in positive multiple reaction monitoring (MRM) mode for the analytes and IS. The turbo spray temperature was maintained at 500°C. The nebulizer gas (gas 1), heater gas (gas 2), and curtain gas was set at 45, 50, and 45 psi, respectively. The interface heater was on. The precursor ion, corresponding product ion and dwell time along with declustering potential (DP), entrance potential (EP), collision energy (CE), and collision exit potential (CXP) for each compound were optimized with standard substance. The dwell time was 50 ms for all analytes. The EP and CXP were set at –10 V and −16 V, respectively.
Sample preparations were made using the protein precipitation process. 50 μL thawed plasma, 10 μL IS working solution (puerarin 10 μg/mL), and 150 μL acetonitrile were added to a 1.5 mL tube in that order. After vortexed for 5 min and centrifuged at 12,000 g for 5 min at 4°C, 150 μL of the supernatant was transferred and a 5 μL was injected into the UPLC-MS/MS instrument for analysis.
Male Sprague-Dawley rats (200–240 g) were obtained from Beijing Vital River Laboratory Animal Technology Co., Ltd. (Beijing, China) (SCXK 2016(jing)-0006). The animals were maintained in SPF animal room at temperature 22 ± 2°C, 60 ± 5% humidity, and 12/12 h day/night cycle. All procedures were approved by the Institutional Animal Ethics Committee and performed in accordance with the Regulations of Experiment Animal Administration issued by the State Committee of Science and Technology of China. RPM extract suspended in an equal volume of 5% CMC-Na solution and orally administered to the six rats at a single dose of 36 g/kg (dose calculated as grams of crude materials used to create the extract per kilogram of rat body weight). The dose was set at a subtoxic level to investigate the pharmacokinetic profiles of the constituents of RPM and were approximately 72 times the upper dose (6 g/day) of human recommended by the 2015 edition of Chinese Pharmacopoeia (converted to rat dose based on body surface area conversion). The calculated doses of compounds based on the contents in the extract were 7.38, 14.8, 13.7, 8.82, 15.5, 11.2, 55.8, 1.08, 1170, 11.3, 25.7, 131.4, and 13.0 mg/kg for chrysophanol, emodin, aloe-emodin, rhein, physcion, questin, citreorosein, questinol, TSG, TG, CG, EG, and PG, respectively. Rats were fasted for at least 12 h before the experiments and had free access to water. Blood samples (∼0.25 mL) were collected from the retinal venous plexus into heparinized 1.5 mL polythene tubes before administration and 5, 15, and 30 min and 1, 2, 4, 6, 8, 12, and 24 h after dosing RPM extract at dose of 36 g/kg. The plasma was immediately separated from blood samples and stored frozen at −70°C until analysis.
The pharmacokinetic parameters were calculated using the pharmacokinetic software Phoenix® WinNonlin®, version 7.0 (Scientific Consulting Inc., Apex, NC, USA). The peak plasma concentration (Cmax) and time to reach Cmax (Tmax) were read directly from the experimental data. […]

[2] = Stability of the analytes in rat plasma and processed plasma samples; assay type: in vitro ADME; settings: for Stability, post-preparative: acetonitrile-precipitated plasma supernatant, 24 h at 6°C in autosampler; for Stability, long-term (–70 °C) / Stability, short-term / Stability, freeze–thaw (three cycles): rat plasma; for Stability, long-term (–70 °C): 3 months at −70°C; for Stability, short-term: 4 h at room temperature; for Stability, freeze–thaw (three cycles): −70°C to room temperature
Experimental: The stability of the 13 analytes in rat plasma were assessed by analyzing samples spiked 0.2, 2.7, and 58.3 ng/mL for emodin, aloe-emodin, questin, citreorosein, questinol, TG, CG, EG, PG; 0.6, 8.1, and 175 ng/mL for TSG; 1, 13.5, and 291.6 ng/mL for rhein, physcion; and 2, 27, and 583.2 ng/mL for chrysophanol, respectively, under four conditions: (1) short-term storage for 4 h at room temperature; (2) long-term storage for (3 months at −70°C; (3) three freeze-thaw cycles; and (4) posttreatment storage for 24 h at 6°C setting in UPLC autosampler. The concentrations obtained were compared with the nominal values of the spiked samples. The stability was calculated as the percent of the measured concentration to the initial concentration at time zero. The analytes were considered stable if the assay values were within the acceptable limit of accuracy (85.0∼115%).

[3] = male, Sprague-Dawley, rat, plasma, po, 36 g/kg, rat plasma, single oral dose of RPM extract 36 g/kg, n = 6, mean ± SD, read-out: AUC0–t
[4] = male, Sprague-Dawley, rat plasma, single oral dose of RPM extract 36 g/kg, n = 6, mean ± SD, read-out: AUC0–∞
[5] = male, Sprague-Dawley, rat plasma, single oral dose of RPM extract 36 g/kg, n = 6, mean ± SD, read-out: Cmax
[6] = male, Sprague-Dawley, rat plasma, single oral dose of RPM extract 36 g/kg, n = 6, mean ± SD, read-out: MRT0–∞
[7] = male, Sprague-Dawley, rat plasma, single oral dose of RPM extract 36 g/kg, n = 6, mean ± SD, read-out: Tmax
[8] = male, Sprague-Dawley, rat plasma, single oral dose of RPM extract 36 g/kg, n = 6, mean ± SD, read-out: t1/2 (converted)
[9] = male, Sprague-Dawley, rat, in vivo, po, 36 g/kg
[10] = male, Sprague-Dawley, in vivo, rat plasma, single oral dose of RPM extract 36 g/kg, n = 6, mean ± SD, read-out: AUC0–∞
[11] = male, Sprague-Dawley, in vivo, rat plasma, single oral dose of RPM extract 36 g/kg, n = 6, mean ± SD, read-out: Cmax
[12] = male, Sprague-Dawley, in vivo, rat plasma, single oral dose of RPM extract 36 g/kg, n = 6, mean ± SD, read-out: MRT0–∞
[13] = male, Sprague-Dawley, in vivo, rat plasma, single oral dose of RPM extract 36 g/kg, n = 6, mean ± SD, read-out: Tmax
[14] = male, Sprague-Dawley, in vivo, rat plasma, single oral dose of RPM extract 36 g/kg, n = 6, mean ± SD, read-out: t1/2 (converted)
[15] = male, Sprague-Dawley, rat, in vivo, po, 36 g/kg, rat plasma, single oral dose of RPM extract 36 g/kg, n = 6, mean ± SD, read-out: AUC0–t
[16] = high QC (58.3 ng/mL; TSG 175; rhein, physcion 292; chrysophanol 583)
[17] = low QC (0.2 ng/mL; TSG 0.6; rhein, physcion 1; chrysophanol 2)
[18] = middle QC (2.7 ng/mL; TSG 8.1; rhein, physcion 13.5; chrysophanol 27)
[19] = rat plasma, single oral dose of RPM extract 36 g/kg, n = 6, mean ± SD

SMILES: Cc1cc(O)c2c(c1)C(=O)c1cccc(O)c1C2=O [Chrysophanol, chrysophanol]
- Latest plasma sample time at which the constituent was detected [1]: ≤ 6 h
- AUC(0-t) [1, 3]: 4.28 ± 1.64 ng·h/mL
- AUC(0-inf) [1, 4]: 10.3 ± 1.87 ng·h/mL
- Cmax [1, 5]: 1.9 ± 0.56 ng/mL
- MRT inf [1, 6]: 6.76 ± 2.06 h
- Tmax [1, 7]: 2.22 ± 1.76 h
- half-life [1, 8]: 3.18 ± 0.62 h

SMILES: O=C(O)c1cc(O)c2c(c1)C(=O)c1cccc(O)c1C2=O [Rhein, rhein]
- Latest plasma sample time at which the constituent was detected [1]: ≤ 2 h
- AUC(0-t) [1, 3]: 1.11 ± 0.63 ng·h/mL
- AUC(0-inf) [1, 4]: 2.31 ± 0.51 ng·h/mL
- Cmax [1, 5]: 1.06 ± 0.24 ng/mL
- MRT inf [1, 6]: 1.83 ± 0.56 h
- Tmax [1, 7]: 0.46 ± 0.1 h
- half-life [1, 8]: 1.18 ± 0.39 h

SMILES: COc1cc(O)c2c(c1)C(=O)c1cc(C)cc(O)c1C2=O [Physcion, physcion]
- Detection in rat plasma after oral RPM extract [1]: not detected
- Detection in rat plasma after oral RPM extract ([1]; listed as physcion): too low to be detected

SMILES: O=C1c2cccc(O)c2C(=O)c2c(O)cc(CO)cc21 [Aloe-emodin, aloe-emodin]
- Latest plasma sample time at which the constituent was detected [1]: ≤ 12 h
- AUC(0-inf) [1, 10]: 8.46 ± 3.44 ng·h/mL
- Cmax [1, 11]: 11.3 ± 3.1 ng/mL
- MRT inf [1, 12]: 3.17 ± 1.54 h
- Tmax [1, 13]: 0.22 ± 0.07 h
- half-life [1, 14]: 3.44 ± 1.4 h
- AUC(0-t) [1, 15]: 7.28 ± 3.25 ng·h/mL
- Stability, post-preparative [2, 16]: 92.6%
- Stability, post-preparative [2, 17]: 96.4%
- Stability, post-preparative [2, 18]: 102%
- Stability, long-term (–70 °C) [2, 16]: 102%
- Stability, long-term (–70 °C) [2, 17]: 103%
- Stability, long-term (–70 °C) [2, 18]: 98.4%
- Stability, short-term [2, 16]: 104%
- Stability, short-term [2, 17]: 105%
- Stability, short-term [2, 18]: 105%
- Stability, freeze–thaw (three cycles) [2, 16]: 101%
- Stability, freeze–thaw (three cycles) [2, 17]: 99%
- Stability, freeze–thaw (three cycles) [2, 18]: 97.2%

SMILES: COc1cc(O)cc2c1C(=O)c1c(O)cc(C)cc1C2=O [Questin, questin]
- Detection in rat plasma after oral RPM extract [1]: not detected; also recorded: too low to be detected

SMILES: Cc1cc(O)c2c(c1)C(=O)c1cc(O)cc(O)c1C2=O [Emodin, 1,3,8-trihydroxy-6-methylanthracene-9,10-dione]
- AUC(0-inf) [1, 10]: 801 ± 233 ng·h/mL
- Cmax [1, 11]: 175 ± 33.8 ng/mL
- MRT inf [1, 12]: 11.8 ± 5.27 h
- Tmax [1, 13]: 0.19 ± 0.09 h
- half-life [1, 14]: 8.37 ± 4.17 h
- AUC(0-t) [1, 15]: 801 ± 187 ng·h/mL
- AUC0–t [1, 19]: 686 ± 187 ng·h/mL
- Stability, post-preparative [2, 16]: 98.1%
- Stability, post-preparative [2, 17]: 101%
- Stability, post-preparative [2, 18]: 103%
- Stability, long-term (–70 °C) [2, 16]: 101%
- Stability, long-term (–70 °C) [2, 17]: 100%
- Stability, long-term (–70 °C) [2, 18]: 102%
- Stability, short-term [2, 16]: 106%
- Stability, short-term [2, 17]: 93.6%
- Stability, short-term [2, 18]: 105%
- Stability, freeze–thaw (three cycles) [2, 16]: 104%
- Stability, freeze–thaw (three cycles) [2, 17]: 102%
- Stability, freeze–thaw (three cycles) [2, 18]: 104%

Second part, the molecule after the results:

- AUC(0-t) [1, 3]: 21.2 ± 7.38 ng·h/mL
- AUC(0-inf) [1, 4]: 21.7 ± 7.48 ng·h/mL
- Cmax [1, 5]: 18.7 ± 4.06 ng/mL
- MRT inf [1, 6]: 2.1 ± 0.24 h
- Tmax [1, 7]: 0.11 ± 0.07 h
- half-life [1, 8]: 2 ± 0.63 h
SMILES: COc1cc(O[C@@H]2O[C@H](CO)[C@@H](O)[C@H](O)[C@H]2O)c2c(O)c(C(C)=O)c(C)cc2c1 [TG, torachrysone-8-O-glucoside]

- Relative bioavailability versus emodin (AUC0–t normalized by molecular weight and dose) ([1]; male, Sprague-Dawley, rat, in vivo, po): 15.8%
- AUC0–t [1, 9]: 131 ± 96.9 ng·h/mL
- AUC0–t relative to that of emodin [1, 9]: 6.0 fold
- AUC(0-inf) [1, 9]: 134 ± 96.4 ng·h/mL
- Cmax [1, 9]: 149 ± 147 ng/mL
- MRT inf [1, 9]: 5.32 ± 1.85 h
- Tmax [1, 9]: 0.19 ± 0.09 h
- half-life [1, 9]: 3.97 ± 1.31 h
- AUC(0-t) ([1]; male, Sprague-Dawley, rat, in vivo, po, 36 g/kg, AUC0–t): 134 ± 96.4 ng·h/mL
SMILES: O=C1c2cc(O)cc(O)c2C(=O)c2c(O)cc(CO)cc21 [Citreorosein, 1,3,8-trihydroxy-6-(hydroxymethyl)anthracene-9,10-dione]

- AUC(0-t) [1, 3]: 1870 ± 554 ng·h/mL
- AUC(0-inf) [1, 4]: 1870 ± 581 ng·h/mL
- Cmax [1, 5]: 1740 ± 401 ng/mL
- MRT inf [1, 6]: 3.66 ± 0.97 h
- Tmax [1, 7]: 0.33 ± 0.13 h
- half-life [1, 8]: 5.98 ± 2.62 h
- AUC0–t [1, 19]: 1811 ± 554 ng·h/mL
SMILES: OC[C@H]1O[C@@H](Oc2c(O)cc(O)cc2/C=C/c2ccc(O)cc2)[C@H](O)[C@@H](O)[C@@H]1O [TSG, 2,3,5,4′-tetrahydroxystilbene-2-O-β-D-glucoside]
